We go through 16 compounds from patent publication US11046696B2, “Fused pyrimidine compound or salt thereof” (TAIHO PHARMACEUTICAL CO., LTD., priority 2016, dated 2021).

For data set [1], the system named is human thyroid cancer cell line TT with RET activating mutation. Description: In vivo antitumor effect, mice subcutaneously implanted with TT cells. Also noted: species or system BALB/cA Jcl-nu/nu male mice. The conditions noted are these: 100 mg/kg/day group, grouping day (day 0).
Description: Human thyroid cancer cell lines (TT) were subcutaneously implanted into the right frank of 6- to 7-week-old BALB/cA Jcl-nu/nu male mice. After about 2 to 3 weeks from the cell implantation, the length (mm) and the width (mm) of tumors found in mouse bodies were measured. […] The day on which the mice were divided into groups was determined to be the “grouping day” (day 0 or 1).
A control group was administered a solvent (0.5% HPMC/0.1N HCl).
To determine the index of the antitumor effect, TV of each drug-administrated group was measured on day 15, and the tumor volume on day 15 relative to the tumor volume on the grouping day (day 0 or 1) (relative tumor volume: RTV) and T/C (%) were calculated from the following equations, and the antitumor effect was evaluated. […] TV (mm^3)=(length×width^2)/2 RTV=(TV on day 15)/(TV on day 0 or day 1) T/C(%)=(the mean RTV of a test compound treatment group)/(the mean RTV of the control group)×100
Data set [2] in a line: Evaluation of stability in liver microsome. The conditions noted are these: mouse liver microsome, 1 μM, 37° C. for 30 minutes. On the technique in general: Liver microsomes are vesicles of endoplasmic reticulum, rich in cytochrome P450 enzymes.
Description: (§1) Solutions of the test compounds in DMSO/acetonitrile (the final concentration of each test compound was 1 μM, the final concentration of DMSO was 0.01%, and the final concentration of acetonitrile was 1%) were individually added to a liver microsome mixture solution (mouse liver microsome with a final concentration of 0.25 mg/mL, a potassium phosphate buffer with a final concentration of 100 mM, and magnesium chloride with a final concentration of 3 mM), and each mixture was pre-incubated at 37° C. for 5 minutes. […] After incubation at 37° C. for 30 minutes, a double amount of ethanol was added thereto to terminate the reaction, thereby obtaining post-reaction samples. A double amount of ethanol was added to each of the remaining mixture solutions, and a NADPH-generating system was further added thereto, thereby obtaining pre-reaction samples. The pre-reaction samples and post-reaction samples were centrifuged at 2000×g, and their supernatant was filtered through a glass filter. Each filtrate was then introduced into LC-MS/MS, and MS/MS peaks of the test compounds were detected. From the ratio of the post-reaction MS/MS peak to the pre-reaction MS/MS peak of the test compounds, the percentage of the remaining test compounds (remaining %) was calculated.
For data set [3] the following is noted: mouse, microsomes, 0.5 h, 1 μM.
Description: as §1

Like-named read-outs stand apart in the source and are kept apart here.

For `COCc1ccc(NC(=O)c2c(C#CCN3CCOCC3)n(C3(C)CC3)c3ncnc(N)c23)cc1` [Example 85, 4-amino-N-[4-(methoxymethyl)phenyl]-7-(1-methylcyclopropyl)-6-(3-morpholinoprop-1-yn-1-yl)-7H-pyrrolo[2,3-d]pyrimidine-5-carboxamide], the “TV (mm^3) Day 0 Mean ± SE” value in data set [1] was 169.45 ± 16.73 mm^3. Regarding `CCC(O)CC#Cc1c(C(=O)Nc2ccc(COC)cc2)c2c(N)ncnc2n1C1(C)CC1` (stereo not shown) [Example 157, 4-amino-6-(4-hydroxyhex-1-yn-1-yl)-N-(4-(methoxymethyl)phenyl)-7-(1-methylcyclopropyl)-7H-pyrrolo[2,3-d]pyrimidine-5-carboxamide], in data set [2], the “Remaining (%)” value is listed as 59%.

Take `COCc1ccc(NC(=O)c2c(C#Cc3ccc4c(c3)NCCO4)n(C3(C)CC3)c3ncnc(N)c23)cc1` [Example 158, 4-amino-6-((3,4-dihydro-2H-benzo[b][1,4]oxazin-6-yl)ethynyl)-N-(4-(methoxymethyl)phenyl)-7-(1-methylcyclopropyl)-7H-pyrrolo[2,3-d]pyrimidine-5-carboxamide]: the “Remaining (%)” value in data set [2] was 85%. On the same count and under the same terms, the value for `COCc1ccc(NC(=O)c2c(-c3ccc(O)cc3)n(C3(C)CC3)c3ncnc(N)c23)cc1` [Example 148, 4-amino-6-(4-hydroxyphenyl)-N-(4-(methoxymethyl)phenyl)-7-(1-methylcyclopropyl)-7H-pyrrolo[2,3-d]pyrimidine-5-carboxamide] was 61%. On the same count and under the same terms, the value for `COCc1ccc(NC(=O)c2c(C#CCC3CCOCC3)n(C3(C)CC3)c3ncnc(N)c23)cc1` [Example 152, 4-amino-N-(4-(methoxymethyl)phenyl)-7-(1-methylcyclopropyl)-6-(3-(tetrahydro-2H-pyran-4-yl)prop-1-yn-1-yl)-7H-pyrrolo[2,3-d]pyrimidine-5-carboxamide] was 57%. On to `C/C=C/c1ccc(NC(=O)c2c(OCC)n(C3(C)CC3)c3ncnc(N)c23)cc1` [Example 117, (E)-4-amino-6-ethoxy-7-(1-methylcyclopropyl)-N-(4-(prop-1-en-1-yl)phenyl)-7H-pyrrolo[2,3-d]pyrimidine-5-carboxamide], for which, in data set [3], the “Remaining (%)” value is on record as 53%. For `COCc1ccc(NC(=O)c2cn(C(C)(C)C)c3ncnc(N)c23)cc1F` [Example 30, 4-amino-7-(tert-butyl)-N-(3-fluoro-4-(methoxymethyl)phenyl)-7H-pyrrolo[2,3-d]pyrimidine-5-carboxamide], in data set [2], the “Remaining (%)” value amounted to 54%.

As to `COCc1ccc(NC(=O)c2c(C#Cc3cncc(C#N)c3)n(C3(C)CC3)c3ncnc(N)c23)cc1` [Example 195, 4-amino-6-((5-cyanopyridin-3-yl)ethynyl)-N-(4-(methoxymethyl)phenyl)-7-(1-methylcyclopropyl)-7H-pyrrolo[2,3-d]pyrimidine-5-carboxamide], the “Remaining (%)” value in data set [2] was 70%.

As for `COCc1ccc(NC(=O)c2c(C#Cc3cncnc3)n(C3(C)CC3)c3ncnc(N)c23)cc1` [Example 196, 4-amino-N-(4-(methoxymethyl)phenyl)-7-(1-methylcyclopropyl)-6-(pyrimidin-5-ylethynyl)-7H-pyrrolo[2,3-d]pyrimidine-5-carboxamide], the “Remaining (%)” value in data set [2] was 53%. Same read-out and setting: with `COCc1ccc(NC(=O)c2cn(C3(C4CC4)CC3)c3ncnc(N)c23)cc1` [Example 49, 7-{[1,1-bi(cyclopropane)]-1-yl}-4-amino-N-(4-(methoxymethyl)phenyl)-7H-pyrrolo[2,3-d]pyrimidine-5-carboxamide] the figure was 67%; with `COCc1ccc(NC(=O)c2c(OC[C@@H](C)OC)n(C3(C)CC3)c3ncnc(N)c23)cc1` [Example 96, (R)-4-amino-N-(4-(methoxymethyl)phenyl)-6-(2-methoxypropoxy)-7-(1-methylcyclopropyl)-7H-pyrrolo[2,3-d]pyrimidine-5-carboxamide], 71%. On the same count and under the same terms, the value for `COCc1ccc(NC(=O)c2c(C#CCC3(O)COC3)n(C3(C)CC3)c3ncnc(N)c23)cc1` [Example 125, 4-amino-6-(3-(3-hydroxyoxetan-3-yl)prop-1-yn-1-yl)-N-(4-(methoxymethyl)phenyl)-7-(1-methylcyclopropyl)-7H-pyrrolo[2,3-d]pyrimidine-5-carboxamide] was 74%. The same measure, in the same setting: with `COCc1ccc(NC(=O)c2c(OCC(C)OC)n(C3(C)CC3)c3ncnc(N)c23)cc1` (stereo not shown) [Example 100, 4-amino-N-(4-(methoxymethyl)phenyl)-6-(2-methoxypropoxy)-7-(1-methylcyclopropyl)-7H-pyrrolo[2,3-d]pyrimidine-5-carboxamide] the figure was 76%; with `COCc1ccc(NC(=O)c2c(Br)n(C3(C)CC3)c3ncnc(N)c23)cc1` [Example 55, 4-amino-6-bromo-N-[4-(methoxymethyl)phenyl]-7-(1-methylcyclopropyl)-7H-pyrrolo[2,3-d]pyrimidine-5-carboxamide], 56%.

On to `COCc1ccc(NC(=O)c2c(C#CC3CCN(C)CC3)n(C3(C)CC3)c3ncnc(N)c23)cc1` [Example 183, 4-amino-N-(4-(methoxymethyl)phenyl)-7-(1-methylcyclopropyl)-6-((1-methylpiperidin-4-yl)ethynyl)-7H-pyrrolo[2,3-d]pyrimidine-5-carboxamide], for which the “Remaining (%)” value in data set [2] worked out at 77%. For `COCc1ccc(NC(=O)c2c(C#Cc3cnn(C(C)C)c3)n(C3(C)CC3)c3ncnc(N)c23)cc1` [Example 144, 4-amino-6-((1-isopropyl-1H-pyrazol-4-yl)ethynyl)-N-(4-(methoxymethyl)phenyl)-7-(1-methylcyclopropyl)-7H-pyrrolo[2,3-d]pyrimidine-5-carboxamide], the “Remaining (%)” value in data set [2] is given as 79%.
